Measurements taken from US12350246B2 (Cancer Prevention Pharmaceuticals, Inc., priority 2015, dated 2025).
Counter-ions that a name gives are not always drawn.

Assays:
[1] = test system: COX; settings: cited from earlier work
[2] = in vivo; cited from earlier work
[3] = Drug excipient compatibility: XRPD; type: physicochemical; settings: 40° C./75% RH, four weeks
Method: A non-cGMP drug excipient compatibility study for eflornithine HCl/sulindac combination tablet was conducted. Appearance, HPLC Assay and XRPD properties were evaluated using a series of samples. The excipients that were tested included PVP, HPMC, lactose, EXPLOTAB™, Ac-Di-Sol®, PROSOLV®, STARCH 1500®, and OPADRY® Yellow. […] Total mass of most samples was approximately 750 mg. Preparation involved weigh off of components into 20cc scintillation vials, closed and vortexed for approximately 30 seconds. The samples were then stored in a 40° C./75% RH stability chamber for four weeks. Lids on the vials were loosely secured and were protected from light while stored in the chamber. XRPD analysis was conducted on a Bruker AXS D8 Advance system with a Bragg-Brentano configuration using the CuKα radiation. Samples were analyzed at room temperature using the following parameters: 40 kV, 40 mA, 1° divergence and antiscatter slits, a method measuring in continuous mode from 2-40°2Θ with a 0.05° step and 1 second/step time. Between 3 and 25 mg of sample was analyzed using a rotating, top-filled steel sample holder in a nine-position auto-sampler accessory. The system was calibrated using traceable standards.

[4] = Drug excipient compatibility: appearance and HPLC assay; type: physicochemical; settings: 40° C./75% RH, four weeks
Method: A non-cGMP drug excipient compatibility study for eflornithine HCl/sulindac combination tablet was conducted. Appearance, HPLC Assay and XRPD properties were evaluated using a series of samples. The excipients that were tested included PVP, HPMC, lactose, EXPLOTAB™, Ac-Di-Sol®, PROSOLV®, STARCH 1500®, and OPADRY® Yellow. […] Total mass of most samples was approximately 750 mg. Preparation involved weigh off of components into 20cc scintillation vials, closed and vortexed for approximately 30 seconds. The samples were then stored in a 40° C./75% RH stability chamber for four weeks. Lids on the vials were loosely secured and were protected from light while stored in the chamber. Appearance observations were conducted by visual examination of the vials prepared for HPLC analysis. […] Excipient compatibility samples were analyzed using a method capable of detecting both actives, cflornithine and sulindac (FIG. 4A). The method employs a gradient reverse phase HPLC with Ultraviolet (UV) detection at 195 nm.

[5] = test system: tumors harboring Ki-ras mutations; settings: reduced from 90%; cited from earlier work
[6] = test system: tumor putrescine levels; settings: eflornithine infusion, without suppressing peripheral platelet counts; cited from earlier work
[7] = test system: prostoglandin E2 (PGE2) levels in flat mucosa; settings: 300 mg/day, one month; cited from earlier work
[8] = cited from earlier work
[9] = in vivo; cited from earlier work; remark: listed apart in the source

## CC1=C(CC(=O)O)c2cc(F)ccc2/C1=C\c1ccc(S(C)(=O)=O)cc1 [Sulindac sulfone]
[1]
  COX-inhibitory activity: lacks COX-inhibitory activity

## Cc1ccc(-c2cc(C(F)(F)F)nn2-c2ccc(S(N)(=O)=O)cc2)cc1 [celecoxib, 4-[5-(4-Methylphenyl)-3-(trifluoromethyl)pyrazol-1-yl]benzenesulfonamide]
[2]
  Increase in rates of heart and blood vessel disease: 30%
  Risks of gastrointestinal side effects: greater than 80%

## NCCCC(N)(C(=O)O)C(F)F (stereo not drawn) [eflornithine HCl]
[3]
  Compatibility with excipients (XRPD): compatible with the potential excipients
[4]
  Compatibility with excipients (appearance, HPLC assay): compatible with the potential excipients

## NCCCC(N)(C(=O)O)C(F)F (stereo not drawn) [eflornithine, 2,5-diamino-2-(difluoromethyl)pentanoic acid]
[5]
  Tumors harboring Ki-ras mutations: 36%
[6]
  Decrease in tumor putrescine levels: 90%

## CC(C)Cc1ccc(C(C)C(=O)O)cc1 (stereo not drawn) [ibuprofen]
[7]
  PGE2 levels in flat mucosa: significant decrease

## CN1C(C(=O)Nc2ccccn2)=C(O)c2ccccc2S1(=O)=O [piroxicam, 4-hydroxy-2-methyl-N-2-pyridyl-2H-1,2-benzothiazine-3-carboxamide 1,1-dioxide]
[5]
  Tumors harboring Ki-ras mutations: 25%

## CC1=C(CC(=O)O)c2cc(F)ccc2/C1=C\c1ccc([S+](C)[O-])cc1 (stereo not drawn) [sulindac, (Z)-5-fluoro-2-methyl-1-((4-(methylsulfinyl)phenyl)methylene)-1H-indene-3-acetic acid]
[3]
  Compatibility with excipients (XRPD): compatible with the potential excipients
[8]; after oral administration
  Fraction of the drug absorbed: about 90%
[8]; fasting patients
  Time to peak plasma levels: about 2 hours
[4]
  Compatibility with excipients (appearance, HPLC assay): compatible with the potential excipients
[9]
  Mild gastrointestinal effects, patients affected: ~20%
  Skin rash and pruritus, patients affected: 5%
